These results are taken from PubChem BioAssay AID1996.

SMILES strings stand for the structures. ≈ marks a conversion by molar mass, not a printed value.

For the series the following is noted: buffer; pH 7.4; 200.0 µM.
Compound `Cc1ccc(C(=O)NCC(c2ccco2)N2CCOCC2)cc1` (stereo not drawn) registered a solubility (kinetic) of over 47.2 µg/mL. `COc1ccc(OC)c(-n2c(SCC(=O)NCC3CCCO3)nc3ccccc3c2=O)c1` (stereo not drawn) returned a solubility (kinetic) of over 68.3 µg/mL.

On to `CS(=O)(=O)NCCNc1ccc(C(F)(F)F)cc1[N+](=O)[O-]`, for which the solubility (kinetic) was found to be 30.3 µg/mL (≈ 92.6 µM).

The compound `O=S(=O)(c1cccs1)N1CCC(CO)(Cc2cccc(F)c2)CC1` came in with a solubility (kinetic) of 53.8 µg/mL (≈ 146 µM). As for `CN(C)CCOC(=O)NC12CC3CC(CC(C3)C1)C2.Cl`, the figure is over 45.4 µg/mL; as for `Cc1ccc(CC(=O)NCC(O)c2ccccc2)cc1` (stereo not drawn), 33.4 µg/mL (≈ 124 µM). As for `CC1(C)OCC(COC(=O)Nc2cccnc2)([N+](=O)[O-])CO1`, the figure is 39.8 µg/mL (≈ 128 µM). The result for `O=[N+]([O-])c1cccc(N=Cc2sc3ccccc3c2O)c1` reads under 0.3 µg/mL; that for `COc1ccc(CNC(=O)COC(=O)C2CC2C)cc1OC` (stereo not drawn), over 46.1 µg/mL; that for `Cc1cccc(OC(C)C(=O)Nc2nccs2)c1` (stereo not drawn), 37.9 µg/mL (≈ 144 µM). With `COc1ccc(NC(=O)c2ccc(NC(=O)COC(=O)c3cnc(C)cn3)cc2)cc1`, the kinetic solubility came to 9.1 µg/mL (≈ 21.6 µM). Against the preceding compound, the solubility kinetic is about 4.2-fold lower. The result for `Cn1c(C2=C(O)CN(c3ccccc3)C2=N)nc2ccccc21` reads 44.5 µg/mL (≈ 146 µM).

Consider `COc1ccc(NC(=O)c2cccnc2SC)cc1OC`, for which the solubility (kinetic) stood at 19.2 µg/mL (≈ 63.1 µM). The result for `CCCCN(CC)Cc1c(C)[nH]c2c(ccc3ccccc32)c1=O` reads over 48.4 µg/mL. Regarding `CC(=O)Nc1ccc(SCC(=O)NCC2(N3CCCCC3)CCCCC2)cc1`, the solubility (kinetic) is over 60.5 µg/mL. The result for `COc1ccc(Br)cc1/C=C/C(=O)OCC(=O)NCCc1ccc(S(N)(=O)=O)cc1` reads 13.8 µg/mL (≈ 27.7 µM); that for `CC(=O)Nc1ccc(S(=O)(=O)N(CC(=O)NC2CC2)Cc2ccccc2)cc1`, over 60.2 µg/mL; that for `COc1ccc(NC(=O)C#Cc2ccccc2)cc1OC`, 37.6 µg/mL (≈ 134 µM). Compound `COc1ccc(NC(=O)c2ccccc2Oc2ccccc2)cc1` had a solubility (kinetic) of under 0.7 µg/mL. As for `CCn1c(=O)c2c(nc3n2CCN3c2ccccc2)n(C)c1=O`, the figure is 3.1 µg/mL (≈ 9.96 µM).

`Cl.NC(c1ccccc1)c1ccncc1` (stereo not drawn) registered a kinetic solubility of over 38.6 µg/mL. The result for `O=C(Cn1cc([N+](=O)[O-])ccc1=O)N1CCCc2ccccc21` reads over 47 µg/mL; that for `CCS(=O)(=O)N1CCc2nc(-c3ccccc3)sc2C1`, over 46.3 µg/mL; that for `CC(Oc1cccnc1[N+](=O)[O-])C(=O)Nc1ccc(F)cc1` (stereo not drawn), over 45.8 µg/mL.

Take `CCN(CC)C(=S)SCC(=O)Nc1ncc2c(n1)CCCC2=O`: the solubility (kinetic) came out at 15.5 µg/mL (≈ 44 µM).

On to `O=C(Nc1cccc2c1CCCC2)c1ccc(F)cc1`, for which the solubility (kinetic) was determined as 2.2 µg/mL (≈ 8.17 µM). On to `Cc1nc(SCC(=O)N(C)C2CCS(=O)(=O)C2)c2ccccc2n1` (stereo not drawn), for which the kinetic solubility was over 54.8 µg/mL. As for `CN(Cc1nc(CCc2ccccc2)no1)Cc1cccs1`, the figure is 18.4 µg/mL (≈ 58.7 µM). The result for `CCOC(=O)N1CCN(c2nc3c(C)cccn3c(=O)c2C=O)CC1` reads over 51.7 µg/mL; that for `CC1(C)C2SCC(=O)N2CCN1CC(=O)NN` (stereo not drawn), over 38.8 µg/mL; that for `Clc1cccc(N2CCN(c3ncnc4nc[nH]c34)CC2)c1`, 0.8 µg/mL (≈ 2.54 µM). `O=C(CSc1nccc(=O)[nH]1)c1ccco1`: the solubility (kinetic) was over 35.4 µg/mL. As for `Cc1ccc2c(c1)N(CC(=O)N1CCCCCC1)C(=O)C(C)O2` (stereo not drawn), the figure is over 47.5 µg/mL; as for `COc1ccc2oc(C(=O)OCC(=O)N3CC(C)OC(C)C3)c(C)c2c1` (stereo not drawn), 51.6 µg/mL (≈ 143 µM).

For `COC(=O)C1=C(C)Nc2nc3ccccc3n2C1c1ccccc1F` (stereo not drawn), the solubility (kinetic) was found to be 0.3 µg/mL (≈ 0.889 µM). This solubility kinetic lies about 170-fold lower than the previous one.

For the compound `COc1ccc(CC(=O)NCC(=O)NC(Cc2ccccc2)C(=O)O)cc1` (stereo not drawn), the kinetic solubility was over 55.6 µg/mL.

Compound `COCc1cc(C)nc(SCc2ccc(Br)cc2)c1C#N` displayed a kinetic solubility of under 0.4 µg/mL. As for `COc1ccc(CC(C)NCCc2ccc(OC)c(OC)c2)cc1` (stereo not drawn), the figure is 48.7 µg/mL (≈ 148 µM); as for `O=C(NC(=S)Nc1cccc2cc(O)ccc12)c1ccco1`, 13.2 µg/mL (≈ 42.3 µM); as for `Cn1cccc1C(=O)OCC(=O)N1CCN(c2ccccc2)CC1`, 48.7 µg/mL (≈ 149 µM). The result for `CC1CCCCN1C(=O)c1cc2ccccc2cc1O` (stereo not drawn) reads over 40.4 µg/mL; that for `CC(=O)c1ccc(NC(=S)NN2C(C)CCCC2C)cc1` (stereo not drawn), over 45.8 µg/mL; that for `C=CCNc1nc(S(=O)Cc2ccc(C)cc2)nc2c1CCCC2` (stereo not drawn), over 51.2 µg/mL.

`CC1CCCC(NC(=O)CSc2ncccn2)C1C` (stereo not drawn) displayed a solubility (kinetic) of over 41.9 µg/mL.

As to `CC(C)c1nnc(NC(=O)CCC(=O)NC2CC2)s1`, the solubility (kinetic) was over 42.4 µg/mL. On to `Cc1cccc(OCCCCCN2CCOCC2)c1C`, for which the kinetic solubility turned out to be 28.6 µg/mL (≈ 103 µM). `O=[N+]([O-])c1ccc2nonc2c1Nc1ccccc1` came in with a solubility (kinetic) of 0.7 µg/mL (≈ 2.73 µM). `CC1(C)CC(=O)C=C(Nc2cccc(Cl)c2Cl)C1` had a solubility (kinetic) of 37.3 µg/mL (≈ 131 µM).

Consider `CC(=O)c1ccc(NC(=O)COC(=O)CCC2CCCC2)cc1`, for which the solubility (kinetic) was 17 µg/mL (≈ 53.6 µM). The result for `CCN1CCC(NCCc2ccc(F)cc2)CC1` reads 24.9 µg/mL (≈ 99.5 µM); that for `Nc1cc(S(=O)(=O)Nc2ccc(Cl)cc2)ccc1N1CCOCC1`, over 55.2 µg/mL; that for `CCOC(=O)c1cc(-c2csc(COc3ccccc3)n2)on1`, 0.4 µg/mL (≈ 1.21 µM). For the compound `COc1ccc(NC(=O)CCC(=O)N2CCOCC2)c([N+](=O)[O-])c1`, the solubility (kinetic) is over 50.6 µg/mL.

Usually solubility (kinetic) stands for solubility judged after dilution from a stock solution rather than from solid.
